Measurements from US20250082760A1 (priority 2020, published 2025).
Structures can show the parent of a compound that is named as a salt.

Experiments:
[1] = stability (degradation test) in acidified plasma; type: in vitro ADME, rat; details: for Sample Peak Average: rat, 5 μmol/ml
Method: • a: Compound 5 prepared in Example 5 was dissolved in purified water to prepare solution A with a concentration of 10 mg/ml; 150 μl of solution A was added to 660 μl of pre-warmed plasma (37° C.), and the pH was adjusted with 0.1% acetic acid to dissolve the sample clear to obtain solution B; • b: Solution B (5 μmol/ml) was stirred in a water bath at 37° C. for a certain period of time (1 min, 2 min, 4 min, 8 min, 16 min, 30 min, 1 h, 2 h, 4 h) and 50 μl was sampled at each time point; • c: 50 μl of the sampled solution was added to 950 μl methanol (0.1% AcH) to precipitate plasma proteins, resulting in mixture C. • d: The mixture C was vortexed for 1 s, centrifuged at 12000 r for 3 min, and the supernatant was taken for testing.
(§1) Liquid phase detection: take 10 μl of the supernatant after the above centrifugation into a sample for measurement.

reserpine-treated mice = test: mouse sugar water preference test (reserpine depression model); type: in vivo, Kunming mice
Method: Experimental drug, clomipramine (CLI), sigma company, batch number: C7291, 10 mg/ml (10% DMSO); reserpine (Res), sigma company, batch number: 83580, 1 mg/ml (10% DMSO);
SPF adult male Kunming mice, 20-30 g, Laboratory Animal Center of Lanzhou University, animal certificate number: SCXK (Gan) 2018-0002, reared in separate cages, temperature 22±1° C., humidity […], 12 h/12 h light and dark cycle controlled by dynamic light (light-on time 8:000 h, light-off time 20:000 h, light intensity≈100 lux), animals could eat and move freely.
(§2) Statistical analysis, the experimental data were analyzed by SPSS 19.0 statistical software, and all data were expressed as Means±SEM.

righting reflex in mice = test: mouse righting reflex test (sedative and hypnotic effects); type: in vivo, Kunming mice
Method: Experimental animals, SPF Kunming mice, male, 20-30 g, Laboratory Animal Center of Lanzhou University (certificate number: SCXK (Gan) 2018-0002), reared in separate cages, temperature, 22±1° C., humidity, 50%, automatic in the light-controlled 12 h/12 h light-dark cycle (light-on time 8:00 h, light-off time 20:00 h, light intensity ≈100 lux) environment, free food and activities, adapted to the experimental environment for 5 days.
as §2

[2] = tested on: reserpine depression model mice; test: forced swimming test in mice (reserpine depression model); type: in vivo, Kunming mice
Method: Experimental Drug, Animal, Grouping and Administration are Same as Sugar Water Preference Experiment Method.
Preparation of depression animal models, acute intraperitoneal injection of 6 mg/kg Res can cause a continuous decrease in monoamine neurotransmitters in the brain for 1 week, and depression-like behaviors last for 72 hours, it is often utilized for the preparation of depression models (Huang et al., 2004).
Forced swimming experiment process, the forced swimming experiment is an experiment in which animals are placed in an unavoidable stressful environment to detect the despair state of animal behavior (Porsolt et al., 1978). Male Kunming mice were selected and randomly divided into groups. Conduct in a quiet and enclosed behavioral observation room, with red lights for indoor lighting (25 lux). The experiment is divided into two stages, the first stage: adaptation experiment, 1 day before the test, 9:00-12:00 h, put the animals into the forced swimming test equipment (plexiglass drum: diameter 20 cm, height 25 cm, water depth 12 cm, water temperature 21-25° C., the upper side CCD camera is connected to the computer to record) after 15 minutes of adaptation, take it out, dry the hair with a towel and put it back into the cage. The second stage: testing experiment, animals in each group were put into the forced swimming bucket for 5 minutes at the same time period, and the behavioral activities during the testing period were tracked and recorded by digital cameras and then analyzed. Immobility time: The animal floats on the water surface, with no movement of the limbs or slight movement of the hind limbs to keep the head above the water surface. Evaluate depression like behavior by detecting the despair state of animals based on their immobility time.
as §2

[3] = stability (degradation test) in fresh rat plasma; type: in vitro ADME; details: for Sample Peak Average: rat, 5 μmol/ml
Method: Experimental sample: compound 5 prepared in Example 5; 5% glucose (Xi′an Jingxi Shuanghe Pharmaceutical Co., Ltd.); rat plasma (source: Animal Center, Department of Medicine, Xi′an Jiaotong University) Fresh plasma sample preparation: • a: Compound 5 prepared in Example 5 was dissolved in purified water to prepare solution A with a concentration of 10 mg/ml; 150 μl of solution A was added to 660 μl of preheated plasma (37° C.) to obtain solution B; • b: Solution B (5 μmol/ml) was stirred in a 37° C. water bath for a certain period of time (1 min, 2 min, 4 min, 8 min, 16 min, 30 min, 1 h, 2 h, 4 h) and 50 μl was sampled at each time point; • c: 50 μl of sampled solution) was added to 950 μl of methanol (0.1% AcH) to precipitate plasma proteins, resulting in mixture C; • d: The mixture C was vortexed for 1 s, centrifuged at 12000 r for 3 min, and the supernatant was taken for testing.
as §1

[4] = Res 6 mg/kg + compound 5 56 mg/kg i.p.
[5] = after Res 6 mg/kg i.p., CLI 50, Pro 25, A1P1 24 and 25, compound 5 56 mg/kg i.p.
[6] = intraperitoneal, compound 5 56 mg/kg, Pro 25 mg/kg, A1P1 24 and 25 mg/kg, Dia 5 mg/kg, n = 7, listed as compound 5, hydrochloride

## CC(C)c1cccc(C(C)C)c1OC(=O)CC1(CN(C)C)CCCCC1 [Compound 5, 2,6-diisopropylphenyl 2-(1-((dimethylamino)methyl)cyclohexyl)acetate hydrochloride]
[1]; plasma acidified with 0.1% acetic acid, 37° C., up to 2 h
  degradation / stability in acidified plasma: not significantly degraded
[1]; 1 min
  Sample Peak Average: 196752060
[1]; 2 min
  Sample Peak Average: 189140125
[1]; 4 min
  Sample Peak Average: 184526452
[1]; 8 min
  Sample Peak Average: 182379068
[1]; 16 min
  Sample Peak Average: 176475001
[1]; 30 min
  Sample Peak Average: 179508039
[1]; 1 h
  Sample Peak Average: 175087504
[1]; 2 h
  Sample Peak Average: 171193983
reserpine-treated mice; [4]
  antidepressant effect (sugar water preference test): significant antidepressant effect
reserpine-treated mice; [5]
  change of preference for sugar water compared with the Res+DMSO group: rose significantly
reserpine-treated mice; after Res 6 mg/kg i.p., CLI 50, Pro 25, A1P1 24 and 25, compound 5 56 mg/kg i.p., Means±SEM, Res + DMSO 0.642 ± 0.036, DMSO 0.901 ± 0.026
  Sugar water preference (sugar water drinking amount/total drinking amount): 0.894 ± 0.028
Righting reflex in mice; intraperitoneal 56 mg/kg, versus Pro and A1P1
  sedative effect: better sedative effect
Righting reflex in mice; intraperitoneal, compound 5 56 mg/kg, Pro 25 mg/kg, A1P1 24 and 25 mg/kg, Dia 5 mg/kg, n = 7, hydrochloride
  Observation of activity and other phenomena: Reduced activity
Righting reflex in mice; [6]
  Disappearance time (latency of disappearance of the righting reflex): did not disappear
  Observation of activity and other phenomena: significantly reduced
[2]; [4]
  antidepressant effect (forced swimming test): significant antidepressant effect
  forced immobility time compared with the Res+A1P1 group: shortened to a certain extent, but there was no significant difference
  forced immobility time compared with the Res+Pro group: shortened and there was a significant difference
[2]; [5]
  change of forced swimming immobility time compared with the Res+DMSO group: slightly shortened
[2]; after Res 6 mg/kg i.p., CLI 50, Pro 25, A1P1 24 and 25, compound 5 56 mg/kg i.p., 5 min test, Means±SEM, Res + DMSO 169.82 ± 11.22, DMSO 106.72 ± 16.49
  Forced swimming immobility time: 116.29 ± 22.23 s
[3]; fresh rat plasma, 37° C., up to 4 h
  degradation / stability in fresh plasma: not significantly degraded
[3]; 1 min
  Sample Peak Average: 203062103
[3]; 2 min
  Sample Peak Average: 181706084
[3]; 4 min
  Sample Peak Average: 161303805
[3]; 8 min
  Sample Peak Average: 178769005
[3]; 16 min
  Sample Peak Average: 189298224
[3]; 1 h
  Sample Peak Average: 230407155
[3]; 2 h
  Sample Peak Average: 260803581
[3]; 4 h
  Sample Peak Average: 246523592
